From patent publication US6908943B2, “Use of γ-tocopherol and its oxidative metabolite LLU-α in the treatment of disease” (Loma Linda University Medical Center, priority 1998, dated 2005)
“And” between values parts separate entries of the source, which are not always exact repeats. Equal entries are not always repeated. “Also recorded” adds a separate entry of the source.

Tests used:
[1] = system: conscious rats; assay: In vivo bioassay for natriuresis in conscious rats; parameters: species or system rat; conditions: for Natriuretic Response (R): R > 0.67 = active
Method: The assay for natriuresis in conscious rats has been described previously (see Benaksas et al., above). The assay is briefly reiterated here. Female Sprague-Dawley (Harlan) rats (200-250 g) were cannulated in the femoral artery and vein for monitoring of mean arterial pressure (MAP) and Infusion of saline and samples, respectively. The bladder was catheterized for collection of urine in ten-minute periods. Furosemide (0.4 mg/kg bwt; 1 mg/mL in 0.17% saline) was infused as a positive control at the beginning of the sixth ten-minute period. The sample was infused at the beginning of the seventeenth ten-minute period. Urine was collected for another 150 minutes. The volume of the urine was determined gravimetrically and the Na^+ and K^+ concentrations determined with a Beckman E2A electrolyte analyzer.
The natriuretic response of a sample was normalized to the dose of furosemide infused. The not sodium excretion for the Infusion of furosemide or sample was calculated as follows. The median sodium excretion value (μmoles Na^+/10 minute period) for the five periods before infusion of furosemide or sample was used to establish a baseline value for the calculation of ΔUNaV (=μmoles Na^+ period—baseline μmoles Na^+) for administration of either furosemide or sample respectively. The sum of ΔUNaV for the four periods following infusion of furosemide was the net sodium excreted for furosemide, defined as FR. The sum of ΔUNaV for the fifteen periods following infusion of the sample was the net sodium excreted for the sample defined as SR. The natriuretic ratio Rn (or normalized natriuretic response) of a sample was calculated by dividing SR by FR (Rn=SR/FR). A sample is considered natriuretically active if the Rn value for that sample was greater than or equal to 0.67 (greater than 99% confidence limits).

[2] = biological target: T1, Na+/K+-ATPase (Bos taurus, UniProt Q08DA1); assay: Na+/K+-ATPase inhibition assay (86Rb+ uptake) in MDBK cells; format: cell-based, bovine; conditions: 0.2-200 ng/well
T1 construct: host or cells: MDBK (Madin-Darby bovine kidney) cells
Method: The assay in MDBK cells has been described previously (see Benaksas at al., above). The assay is described briefly here. Madin-Darby bovine kidney (MDBK) cells (ATCC:CCL22) were maintained in Dulbecco's Modified Eagle's Medium (DMEM) with 5% Fetal Bovine Serum and 5% Bovine Calf Serum in a 5% CO2/95% humidified air atmosphere at 37° C. and split (1:2) once per week.
One day before the assay, cells were plated in a 96-well plate at a density of 5×10^5 cells/well in DMEM with serum. On the day of the assay the medium was removed and the cells washed with phosphate buffered saline (PBS) before addition of 100 μL of assay media (122 mM NaCl, 1.8 mM CaCl2, 0.8 mM MgSO4, 24 mM NaHCO3, 1 mM sodium pyruvate, 25 mM glucose, 14 mM glycylglycine, 0.2% phenol red, 8 mM Na2HPO4 1.15 mM KH2PO4, pH 8.0) and 100 μl of sample. The plate was preincubated for 30 minutes at 37° C., then chilled on ice for 10 minutes. To each well was added 0.15 μCi ^86RbCl (Amersham) in 10 μL of assay media. The plate was then incubated at 37° C. for 10 minutes. A portion (100 μL) of the supernatant was counted with 0.5 mL of scintillation cocktail in a liquid scintillation counter. As a control for Na^+/K^+-ATPase inhibition, a dose response curve for ouabain in the range of 10^−5-10^−8 M was obtained. Intra-experiment coefficient of variation for ouabain was 3-15%. […]

[3] = Chemical characteristics / stability of the natriuretic LLUs; format: physicochemical
[4] = system: tumor cells derived from a spontaneously arising mammary tumor; assay: Tumor formation in mice injected with mammary tumor cells; format: in vivo; conditions: 20 mg/kg, 21 days after tumor cell injection, versus untreated tumor-induced control mice
Excerpt: Four groups of mice are used in the study: (1) control mice in which tumor formation is not induced but treatment with a formulation of γ-tocopherol 75% (weight to weight) and LLU-α 25% (weight to weight) is rendered; (2) control mice in which tumor formation is induced and treatment is not rendered; (3) experimental mice in which tumor formation is induced and treatment with γ-tocopherol 75% (weight to weight) is rendered; and (4) experimental mice in which tumor formation is induced and treatment with a formulation of γ-tocopherol 75% (weight to weight) and LLU-α 25% (weight to weight) is rendered. As a further control, mice in which tumor formation is induced are treated with varying concentrations of α-tocopherol so as to evaluate the relative effectivity of γ-tocopherol and the formulation of γ-tocopherol and LLU-α, as compared to α-tocopherol.
Mice which receive treatment with γ-tocopherol or a formulation of γ-tocopherol and LLU-α, as described above, are given 20 mg/kg of supplement for a period of 2-4 weeks. Tumor cells derived from a spontaneously arising mammary tumor are then injected into the thigh area of the experimental mice to induce tumor formation. Treatment with γ-tocopherol and the formulation of γ-tocopherol and LLU-α is continued according to the protocol above. After 21 days, the mean volume of tumors in the mice is determined and compared.

`Cc1c(C)c2c(c(C)c1O)CCC(C)(CCC(=O)O)O2` (racemic) [Example 12, 2,5,7,8-tetramethyl-2-(β-carboxyethyl)-6-hydroxy chroman] showed a melting point of 173 °C.

In the case of `Cc1c(O)cc2c(c1C)OC(C)(CCC(=O)O)CC2` (racemic) [LLU-α, 6-hydroxy-2,7,8-trimethylchroman-2-propanoic acid], the natriuretic activity ([1]; 8 μg/kg, further purified on acetic acid/acetonitrile RP-HPLC (seventh step)) is reported as “active”, the “kaliuresis (potassium excretion)” value ([1]; after infusion, conscious rat) is reported as “no detectable kaliuresis” and the “change in mean arterial pressure” value ([1]; infusion, conscious rat) is reported as “Neither LLU-α nor -γ caused a significant Change; also recorded: does not cause a significant change”. For the same compound, the “effect on blood pressure” value ([1]; infusion, conscious rat) was “no effect on blood pressure”, the “natriuresis when infused into the rat” value ([1]; infusion, conscious rat) was “sustained natriuresis” and the “natriuretic activity at lower or higher doses” value ([1]; partially purified (sixth step), doses below or above 4-8 μg/kg) was “no activity”. The “dose range with natriuretic activity” value ([1]; partially purified from silica gel-HPLC (sixth purification step)) was 4 to 8 µg/kg, the natriuretic dose-response curve ([1]; shape of curve (Table III)) was “narrow and biphasic” and the “Natriuretic Response (R)” value ([1]; silica gel HPLC fraction 17, dose 0.2 μg, infused in conscious rat) was −0.14. The “Natriuretic Response (R)” value ([1]; silica gel HPLC fraction 17, dose 1 μg) was 0.27, the “Natriuretic Response (R)” value ([1]; silica gel HPLC fraction 17, dose 2 μg) was 1.14 and 0.75 and the “Natriuretic Response (R)” value ([1]; silica gel HPLC fraction 17, dose 10 μg) was 0.26. For the same compound, the “Natriuretic Response (R)” value ([1]; silica gel HPLC fraction 18, dose 22.4 μg) was 0.02, the “Natriuretic Response (R)” value ([1]; silica gel HPLC fraction 18, dose 56.4 μg) was 0.23 and the “Natriuretic Response (R)” value ([1]; silica gel HPLC fraction 19, dose 0.2 μg) was 0.24. For the same compound, the “Natriuretic Response (R)” value ([1]; silica gel HPLC fraction 19, dose 1 μg) was 0.93, the “Natriuretic Response (R)” value ([1]; silica gel HPLC fraction 19, dose 10 μg) was 0.09 and the “sodium excretion in the urine in mammals” value ([1]; without a corresponding increase in potassium excretion) was “capable of increasing sodium excretion”. The “Na+/K+-ATPase inhibition” value [2] was “no inhibition”, the “Physical Properties: stability in CDCl3” value ([3]; CDCl3) was “Unstable in” and the “Physical Properties: stability in dilute base” value ([3]; dilute base) was “instability; also recorded: Unstable in”.

In the case of `Cc1c(O)cc2c(c1C)O[C@](C)(CCC[C@H](C)CCC[C@H](C)CCCC(C)C)CC2` [γ-tocopherol], the “mean volume of tumors” value [4] is reported as “less than the mean volume of tumors in the control mice”.
